The supplement of paper PMC10627819

Key:
S. pneumoniae D39V [1] = test: fitness (endpoint OD595 vs no drug) (fraction); higher = more growth
Summary of the method: (§1)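 Fitness expresses the optical density reached at the stationary-phase transition as a fraction of the robust mean of no-drug control wells. It is capped at 1. Measurements were OD595 every 30 min for 14 h at 37 °C after inoculation of 384-well plates at OD595 0.01 (30 µl, or 55 µl for S. pneumoniae), minus the first reading.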

S. aureus DSM 20231 [2] = test: as above
Summary of the method: as §1

B. subtilis 168 [3] = test: as above
Summary of the method: as §1

S. pneumoniae D39V [4] = test: Bliss interaction score (quartile over a dose matrix) (fitness difference); higher = more antagonism (negative = synergy)
Summary of the method: (§2)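 Each OD595 reading at entry into stationary phase was scaled to the robust mean of the untreated wells on its plate, with a ceiling of 1. These ratios define fitness, and single-drug fitness was inferred from combinations. The Bliss score compares observed fitness with the product-based expectation and is reported as quartiles across all replicate types, technical, biological and donor/recipient.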

S. aureus DSM 20231 [5] = test: as above
Summary of the method: as §2

B. subtilis 168 [6] = test: as above
Summary of the method: as §2

S. aureus Newman = test: as above
Summary of the method: as §2
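For Bliss interaction score (quartile over a dose matrix) in this document: first quartile when negative (synergy) and third quartile when positive (antagonism).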
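For fitness (endpoint OD595 vs no drug) in this document: OD595 on entry to stationary phase over no-drug wells; at most 1.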

O=C(O[C@@H]1Cc2c(O)cc(O)cc2O[C@@H]1c1cc(O)c(O)c(O)c1)c1cc(O)c(O)c(O)c1 [EGCG] + CCC[C@@H]1C[C@@H](C(=O)N[C@@H]([C@H]2O[C@H](SC)[C@H](O)[C@@H](O)[C@H]2O)[C@@H](C)O)N(C)C1 [Lincomycin]
fitness
Settings	partner 0.1 µg/mL	partner 0.2 µg/mL	partner 0.215 µg/mL	partner 0.4 µg/mL	partner 0.43 µg/mL	partner 0.8 µg/mL	partner 0.86 µg/mL
B. subtilis 168 [3], first compound 6.25 µg/mL	0.889	0.88	–	0.908	–	–	–
S. aureus DSM 20231 [2], first compound 12.5 µg/mL	0.593	0.505	–	0.354	–	–	–
S. aureus DSM 20231 [2], first compound 25 µg/mL	0.592	0.553	–	0.306	–	–	–
S. aureus DSM 20231 [2], first compound 50 µg/mL	0.549	–	–	0.142	–	–	–
S. pneumoniae D39V [1], first compound 12.5 µg/mL	–	0.429	0.739	0.273	0.565	0.0193	0.389
S. pneumoniae D39V [1], first compound 25 µg/mL	–	0.483	0.713	0.439	0.668	0.0594	0.456
S. pneumoniae D39V [1], first compound 50 µg/mL	–	0.328	0.565	0.182	0.671	–	–

fitness, B. subtilis 168 [3], one replicate
Settings	first compound 6.25 µg/mL	first compound 12.5 µg/mL	first compound 25 µg/mL
partner 0.8 µg/mL	0.908	0.761	0.709
partner 1.6 µg/mL	0.864	0.734	0.606

Settings	Bliss interaction score
B. subtilis 168 [6]	0.102
S. aureus DSM 20231 [5]	-0.119
S. aureus Newman	-0.056
S. pneumoniae D39V [4]	-0.112

CCC[C@@H]1C[C@@H](C(=O)N[C@@H]([C@H]2O[C@H](SC)[C@H](O)[C@@H](O)[C@H]2O)[C@@H](C)O)N(C)C1 [Lincomycin] + CC(=O)NC[C@H]1CN(c2ccc(N3CCOCC3)c(F)c2)C(=O)O1 [Linezolid]
Settings	fitness
B. subtilis 168 [3], first compound 0.1 µg/mL, partner 0.5 µg/mL	0.0626
B. subtilis 168 [3], first compound 0.2 µg/mL, partner 0.125 µg/mL	0.643
B. subtilis 168 [3], first compound 0.2 µg/mL, partner 0.5 µg/mL	0.0527
B. subtilis 168 [3], first compound 0.4 µg/mL, partner 0.125 µg/mL	0.629
B. subtilis 168 [3], first compound 0.4 µg/mL, partner 0.5 µg/mL	0.0589
S. aureus DSM 20231 [2], first compound 0.1 µg/mL, partner 0.125 µg/mL	0.824
S. aureus DSM 20231 [2], first compound 0.1 µg/mL, partner 0.25 µg/mL	0.628
S. aureus DSM 20231 [2], first compound 0.1 µg/mL, partner 0.5 µg/mL	0.276
S. aureus DSM 20231 [2], first compound 0.2 µg/mL, partner 0.125 µg/mL	0.583
S. aureus DSM 20231 [2], first compound 0.2 µg/mL, partner 0.5 µg/mL	0.192
S. aureus DSM 20231 [2], first compound 0.4 µg/mL, partner 0.125 µg/mL	0.244
S. aureus DSM 20231 [2], first compound 0.4 µg/mL, partner 0.25 µg/mL	0.146
S. aureus DSM 20231 [2], first compound 0.4 µg/mL, partner 0.5 µg/mL	0.0893
S. pneumoniae D39V [1], first compound 0.2 µg/mL, partner 0.105 µg/mL	0.717
S. pneumoniae D39V [1], first compound 0.2 µg/mL, partner 0.21 µg/mL	0.658
S. pneumoniae D39V [1], first compound 0.2 µg/mL, partner 0.42 µg/mL	0.519
S. pneumoniae D39V [1], first compound 0.215 µg/mL, partner 0.2 µg/mL	0.716
S. pneumoniae D39V [1], first compound 0.215 µg/mL, partner 0.4 µg/mL	0.649
S. pneumoniae D39V [1], first compound 0.215 µg/mL, partner 0.8 µg/mL	0.413
S. pneumoniae D39V [1], first compound 0.4 µg/mL, partner 0.105 µg/mL	0.627
S. pneumoniae D39V [1], first compound 0.4 µg/mL, partner 0.21 µg/mL	0.601
S. pneumoniae D39V [1], first compound 0.4 µg/mL, partner 0.42 µg/mL	0.234
S. pneumoniae D39V [1], first compound 0.43 µg/mL, partner 0.2 µg/mL	0.642
S. pneumoniae D39V [1], first compound 0.43 µg/mL, partner 0.4 µg/mL	0.583
S. pneumoniae D39V [1], first compound 0.43 µg/mL, partner 0.8 µg/mL	0.306
S. pneumoniae D39V [1], first compound 0.8 µg/mL, partner 0.105 µg/mL	0.278
S. pneumoniae D39V [1], first compound 0.8 µg/mL, partner 0.21 µg/mL	0.128
S. pneumoniae D39V [1], first compound 0.8 µg/mL, partner 0.42 µg/mL	0.0738
S. pneumoniae D39V [1], first compound 0.86 µg/mL, partner 0.2 µg/mL	0.392
S. pneumoniae D39V [1], first compound 0.86 µg/mL, partner 0.4 µg/mL	0.311
S. pneumoniae D39V [1], first compound 0.86 µg/mL, partner 0.8 µg/mL	0.13

fitness, one replicate
Settings	first compound 0.1 µg/mL	first compound 0.2 µg/mL	first compound 0.4 µg/mL	first compound 0.8 µg/mL	first compound 1.6 µg/mL
B. subtilis 168 [3], partner 0.0625 µg/mL	–	–	0.87	0.867	0.847
B. subtilis 168 [3], partner 0.125 µg/mL	–	–	–	0.633	0.638
B. subtilis 168 [3], partner 0.25 µg/mL	–	–	–	0.102	0.0942
S. aureus DSM 20231 [2], partner 1 µg/mL	0.0602	0.0846	0.0423	–	–

Settings	Bliss interaction score
B. subtilis 168 [6]	0.158
S. aureus DSM 20231 [5]	-0.069
S. aureus Newman	-0.088
S. pneumoniae D39V [4]	0.0482

CCC[C@@H]1C[C@@H](C(=O)N[C@@H]([C@H]2O[C@H](SC)[C@H](O)[C@@H](O)[C@H]2O)[C@@H](C)O)N(C)C1 [Lincomycin] + C[n+]1ccc(-c2cc[n+](C)cc2)cc1 [Paraquat]
fitness, S. pneumoniae D39V [1], one replicate
Settings	first compound 0.2 µg/mL	first compound 0.4 µg/mL	first compound 0.8 µg/mL
partner 1.5 µg/mL	0.83	0.758	0.675
partner 3 µg/mL	0.866	0.751	0.729
partner 6 µg/mL	0.889	0.802	0.776

Settings	fitness
B. subtilis 168 [3], first compound 0.1 µg/mL, partner 1.25 µg/mL	0.92
B. subtilis 168 [3], first compound 0.1 µg/mL, partner 2.5 µg/mL	0.92
B. subtilis 168 [3], first compound 0.1 µg/mL, partner 5 µg/mL	0.968
B. subtilis 168 [3], first compound 0.2 µg/mL, partner 1.25 µg/mL	0.923
B. subtilis 168 [3], first compound 0.2 µg/mL, partner 2.5 µg/mL	0.855
B. subtilis 168 [3], first compound 0.2 µg/mL, partner 5 µg/mL	0.833
B. subtilis 168 [3], first compound 0.4 µg/mL, partner 1.25 µg/mL	0.878
B. subtilis 168 [3], first compound 0.4 µg/mL, partner 2.5 µg/mL	0.845
B. subtilis 168 [3], first compound 0.4 µg/mL, partner 5 µg/mL	0.814
S. aureus DSM 20231 [2], first compound 0.1 µg/mL, partner 1.25 µg/mL	0.801
S. aureus DSM 20231 [2], first compound 0.1 µg/mL, partner 2.5 µg/mL	0.802
S. aureus DSM 20231 [2], first compound 0.1 µg/mL, partner 5 µg/mL	0.838
S. aureus DSM 20231 [2], first compound 0.2 µg/mL, partner 1.25 µg/mL	0.739
S. aureus DSM 20231 [2], first compound 0.2 µg/mL, partner 2.5 µg/mL	0.719
S. aureus DSM 20231 [2], first compound 0.2 µg/mL, partner 5 µg/mL	0.692
S. aureus DSM 20231 [2], first compound 0.4 µg/mL, partner 5 µg/mL	0.28
S. pneumoniae D39V [1], first compound 0.215 µg/mL, partner 1.5 µg/mL	0.885
S. pneumoniae D39V [1], first compound 0.215 µg/mL, partner 3 µg/mL	0.863
S. pneumoniae D39V [1], first compound 0.215 µg/mL, partner 6 µg/mL	0.814
S. pneumoniae D39V [1], first compound 0.43 µg/mL, partner 1.5 µg/mL	0.774
S. pneumoniae D39V [1], first compound 0.43 µg/mL, partner 3 µg/mL	0.733
S. pneumoniae D39V [1], first compound 0.43 µg/mL, partner 6 µg/mL	0.711
S. pneumoniae D39V [1], first compound 0.86 µg/mL, partner 1.5 µg/mL	0.56
S. pneumoniae D39V [1], first compound 0.86 µg/mL, partner 3 µg/mL	0.407
S. pneumoniae D39V [1], first compound 0.86 µg/mL, partner 6 µg/mL	0.453

Settings	Bliss interaction score
B. subtilis 168 [6]	0.0402
S. aureus DSM 20231 [5]	-0.0564
S. aureus Newman	-0.191
S. pneumoniae D39V [4]	0.0842

CCC[C@@H]1C[C@@H](C(=O)N[C@@H]([C@H]2O[C@H](SC)[C@H](O)[C@@H](O)[C@H]2O)[C@@H](C)O)N(C)C1 [Lincomycin] + COc1cc(Cc2cnc(N)nc2N)cc(OC)c1OC [Trimethoprim]
fitness
Settings	first compound 0.1 µg/mL	first compound 0.2 µg/mL	first compound 0.4 µg/mL	first compound 0.8 µg/mL	first compound 1.6 µg/mL
B. subtilis 168 [3], partner 0.125 µg/mL	–	–	0.487	–	–
B. subtilis 168 [3], partner 0.25 µg/mL	–	–	0.465	0.263	0.0775
B. subtilis 168 [3], partner 0.5 µg/mL	0.412	0.368	0.282	0.155	0.0565
S. aureus DSM 20231 [2], partner 0.125 µg/mL	0.83	0.556	0.227	–	–
S. aureus DSM 20231 [2], partner 0.25 µg/mL	0.69	0.596	–	–	–
S. aureus DSM 20231 [2], partner 0.5 µg/mL	0.49	0.536	0.173	–	–
S. aureus DSM 20231 [2], partner 1 µg/mL	0.0776	0.0724	0.0567	–	–

fitness, B. subtilis 168 [3], one replicate
Settings	partner 0.1 µg/mL	partner 0.125 µg/mL	partner 0.2 µg/mL	partner 0.25 µg/mL	partner 0.4 µg/mL	partner 1 µg/mL	partner 2 µg/mL
first compound 0.1 µg/mL	–	0.539	–	0.582	–	0.451	0.343
first compound 0.2 µg/mL	–	0.633	–	0.619	–	0.319	0.174
first compound 0.4 µg/mL	0.581	–	0.318	–	0.215	0.069	0.0635
first compound 0.8 µg/mL	0.382	0.142	0.169	–	0.121	–	–
first compound 1.6 µg/mL	0.112	0.0455	0.0673	–	0.0597	–	–

Settings	Bliss interaction score
B. subtilis 168 [6]	-0.231
S. aureus DSM 20231 [5]	0.222
S. aureus Newman	0.213
S. pneumoniae D39V [4]	-0.125
